This passage reports mutagenic call results from PubChem BioAssay AID1259407 (Chemical Carcinogenesis Research Information System (CCRIS), 2018).

The source made the active and inactive calls. No rule for the calls is given here.

For the data set, the system named is CCRIS mutagenicity, Ames/micronucleus/aberration tests. Kind of data set: CCRIS mutagenicity studies.
The mark [1] stands for this setting: Test System: AMES SALMONELLA TYPHIMURIUM, Strain/Indicator: TA98, Metabolic Activation: NONE, Method: PREINCUBATION
Setting [2] is: Test System: AMES SALMONELLA TYPHIMURIUM, Strain/Indicator: TA98, Metabolic Activation: HAMSTER, LIVER, S-9, AROCLOR 1254, Method: STANDARD PLATE.
Where [3] appears, read: Test System: AMES SALMONELLA TYPHIMURIUM, Strain/Indicator: TA98, Metabolic Activation: NONE, Method: STANDARD PLATE.
Where [4] appears, read: Test System: AMES SALMONELLA TYPHIMURIUM, Strain/Indicator: TA98, Metabolic Activation: RAT, LIVER, S-9, AROCLOR 1254, Method: STANDARD PLATE.
Where [5] appears, read: Test System: AMES SALMONELLA TYPHIMURIUM, Strain/Indicator: TA100, Metabolic Activation: NONE, Method: STANDARD PLATE.
Setting [6] is: Test System: AMES SALMONELLA TYPHIMURIUM, Strain/Indicator: TA100, Metabolic Activation: RAT, LIVER, S-9, AROCLOR 1254, Method: STANDARD PLATE.
[7] abbreviates: Test System: AMES SALMONELLA TYPHIMURIUM, Strain/Indicator: TA1535, Metabolic Activation: NONE, Method: STANDARD PLATE.
Setting [8] is: Test System: AMES SALMONELLA TYPHIMURIUM, Strain/Indicator: TA1535, Metabolic Activation: RAT, LIVER, S-9, AROCLOR 1254, Method: STANDARD PLATE.
Where [9] appears, read: Test System: AMES SALMONELLA TYPHIMURIUM, Strain/Indicator: TA1537, Metabolic Activation: NONE, Method: STANDARD PLATE.
Where [10] appears, read: Test System: AMES SALMONELLA TYPHIMURIUM, Strain/Indicator: TA1537, Metabolic Activation: RAT, LIVER, S-9, AROCLOR 1254, Method: STANDARD PLATE.
[11] abbreviates: Test System: AMES SALMONELLA TYPHIMURIUM, Strain/Indicator: TA1538, Metabolic Activation: NONE, Method: STANDARD PLATE.
The mark [12] stands for this setting: Test System: AMES SALMONELLA TYPHIMURIUM, Strain/Indicator: TA1538, Metabolic Activation: RAT, LIVER, S-9, AROCLOR 1254, Method: STANDARD PLATE.
Where [13] appears, read: Test System: AMES SALMONELLA TYPHIMURIUM, Strain/Indicator: TA102, Metabolic Activation: NONE, Method: STANDARD PLATE.

On to `Cc1cnc2ccccc2c1`, for which the mutagenic call runs as follows: under setting [1], “inactive; negative”; (Test System: AMES SALMONELLA TYPHIMURIUM, Strain/Indicator: TA98, Metabolic Activation: RAT, LIVER, S-9, Method: PREINCUBATION) “inactive; negative”; (Test System: AMES SALMONELLA TYPHIMURIUM, Strain/Indicator: TA100, Metabolic Activation: NONE, Method: PREINCUBATION) “inactive; negative”; (Test System: AMES SALMONELLA TYPHIMURIUM, Strain/Indicator: TA100, Metabolic Activation: RAT, LIVER, S-9, PHENOBARBITAL AND 5,6-BENZOFLAVONE, Method: PREINCUBATION) “active; positive”; (Test System: AMES SALMONELLA TYPHIMURIUM, Strain/Indicator: TA100, Metabolic Activation: RAT, LIVER, S-9, PHENOBARBITAL AND 5,6-NAPHTHOFLAVONE, Method: PREINCUBATION) “active; positive”.
Consider `Cc1cc(N(CCO)CCO)ccc1N=Nc1ccc(N)cc1`, for which the mutagenic call is “inactive; negative” under setting [2]; “inactive; negative” under setting [3]; “inactive; negative” (Test System: AMES SALMONELLA TYPHIMURIUM, Strain/Indicator: TA98, Metabolic Activation: RAT, LIVER, S-9, AROCLOR 1254, Method: PREINCUBATION); “inactive; negative” under setting [4]; “inactive; negative” under setting [5]; “inactive; negative” under setting [6]. Besides, the mutagenic call reads like this: under setting [7], “inactive; negative”; under setting [8], “inactive; negative”; under setting [9], “inactive; negative”; under setting [10], “inactive; negative”; under setting [11], “inactive; negative”; under setting [12], “inactive; negative”.
Consider `CS(=O)(=O)Nc1ccc(Nc2c3ccccc3nc3ccc(N=[N+]=[N-])cc23)cc1`, for which, under setting [9], the mutagenic call was “active; positive”.
Take `Cc1cc2nc3ccc(=[N+](C)C)cc-3sc2cc1N`: the mutagenic call reads like this: (Test System: AMES SALMONELLA TYPHIMURIUM, Strain/Indicator: TA97A, Metabolic Activation: NONE, Method: STANDARD PLATE) “active; positive”; (Test System: AMES SALMONELLA TYPHIMURIUM, Strain/Indicator: TA97A, Metabolic Activation: RAT, LIVER, S-9, AROCLOR 1254, Method: STANDARD PLATE) “active; positive”; under setting [3], “inactive; negative”; under setting [4], “active; positive”; under setting [5], “inactive; negative”; under setting [6], “active; positive”. Besides, the mutagenic call reads like this: under setting [13], “inactive; negative”; (Test System: AMES SALMONELLA TYPHIMURIUM, Strain/Indicator: TA102, Metabolic Activation: RAT, LIVER, S-9, AROCLOR 1254, Method: STANDARD PLATE) “active; positive”.
In the case of `O=C(OC[C@@H]1CO1)c1ccc([N+](=O)[O-])cc1`, the mutagenic call under setting [5] is “active; positive”.
On to `CN(N=O)C(=O)c1c(N(C)N=O)ncn1C`, for which the mutagenic call was “inactive; negative” under setting [3]; “inactive; negative” (Test System: AMES SALMONELLA TYPHIMURIUM, Strain/Indicator: TA98, Metabolic Activation: S-9, Method: STANDARD PLATE); “active; positive” under setting [5]; “active; positive” (Test System: AMES SALMONELLA TYPHIMURIUM, Strain/Indicator: TA100, Metabolic Activation: S-9, Method: STANDARD PLATE); “active; positive” under setting [13]; “active; positive” (Test System: AMES SALMONELLA TYPHIMURIUM, Strain/Indicator: TA102, Metabolic Activation: S-9, Method: STANDARD PLATE). In addition, the mutagenic call under setting [7] was “active; positive”; the mutagenic call (Test System: AMES SALMONELLA TYPHIMURIUM, Strain/Indicator: TA1535, Metabolic Activation: S-9, Method: STANDARD PLATE) was “active; positive”; the mutagenic call under setting [9] is “inactive; negative”; the mutagenic call (Test System: AMES SALMONELLA TYPHIMURIUM, Strain/Indicator: TA1537, Metabolic Activation: S-9, Method: STANDARD PLATE) is “inactive; negative”.
`CS(=O)(=O)OC[C@H](O)[C@@H](O)COS(C)(=O)=O`: the mutagenic call under setting [5] was “active; positive”; the mutagenic call under setting [7] is “active; positive”; the mutagenic call (Test System: AMES SALMONELLA TYPHIMURIUM, Strain/Indicator: TA7004, Metabolic Activation: NONE, Method: STANDARD PLATE) was “active; positive”; the mutagenic call (Test System: AMES SALMONELLA TYPHIMURIUM, Strain/Indicator: TA7005, Metabolic Activation: NONE, Method: STANDARD PLATE) was “inactive; negative”; the mutagenic call (Test System: CHINESE HAMSTER OVARY, Strain/Indicator: AS52/6-THIOGUANINE, Metabolic Activation: NONE) was “active; positive”.
Regarding `OC1c2cccc3ccc4c5ccccc5cc1c4c23` (stereo unspecified), the mutagenic call by setting is: (Test System: AMES SALMONELLA TYPHIMURIUM, Strain/Indicator: TA98, Metabolic Activation: HUMAN, LIVER, CYTOSOL, PAPS, Method: PREINCUBATION) “active; positive”; under setting [1], “active; positive”; (Test System: AMES SALMONELLA TYPHIMURIUM, Strain/Indicator: TA98, Metabolic Activation: RAT, LIVER, CYTOSOL, KCL, Method: PREINCUBATION) “inactive; negative”; (Test System: AMES SALMONELLA TYPHIMURIUM, Strain/Indicator: TA98, Metabolic Activation: RAT, LIVER, CYTOSOL, PAPS, KCL, Method: PREINCUBATION) “active; positive”; (Test System: AMES SALMONELLA TYPHIMURIUM, Strain/Indicator: TA98, Metabolic Activation: RAT, LIVER, CYTOSOL, PAPS, Method: PREINCUBATION) “active; positive”; (Test System: AMES SALMONELLA TYPHIMURIUM, Strain/Indicator: TA98, Metabolic Activation: RAT, LIVER, PAPS, KCL, Method: PREINCUBATION) “inactive; negative”. Also, the mutagenic call (Test System: AMES SALMONELLA TYPHIMURIUM, Strain/Indicator: TA98, Metabolic Activation: RAT, LIVER, S-9, NADPH, Method: PREINCUBATION) was “active; positive”.
Regarding `O=C1c2ccccc2CCc2ccccc21`, the mutagenic call is “inactive; negative” under setting [2]; “inactive; negative” under setting [3]; “inactive; negative” under setting [4]; “inactive; negative” (Test System: AMES SALMONELLA TYPHIMURIUM, Strain/Indicator: TA100, Metabolic Activation: HAMSTER, LIVER, S-9, AROCLOR 1254, Method: STANDARD PLATE); “inactive; negative” under setting [5]; “inactive; negative” under setting [6]. Besides, the mutagenic call runs as follows: (Test System: AMES SALMONELLA TYPHIMURIUM, Strain/Indicator: TA1535, Metabolic Activation: HAMSTER, LIVER, S-9, AROCLOR 1254, Method: STANDARD PLATE) “inactive; negative”; under setting [7], “inactive; negative”; under setting [8], “inactive; negative”; (Test System: AMES SALMONELLA TYPHIMURIUM, Strain/Indicator: TA1537, Metabolic Activation: HAMSTER, LIVER, S-9, AROCLOR 1254, Method: STANDARD PLATE) “inactive; negative”; under setting [9], “inactive; negative”; under setting [10], “inactive; negative”. Also, the mutagenic call by setting is: (Test System: AMES SALMONELLA TYPHIMURIUM, Strain/Indicator: TA1538, Metabolic Activation: HAMSTER, LIVER, S-9, AROCLOR 1254, Method: STANDARD PLATE) “inactive; negative”; under setting [11], “inactive; negative”; under setting [12], “inactive; negative”; (Test System: MOUSE LYMPHOMA, Strain/Indicator: L5178Y (TK+/TK-), Metabolic Activation: NONE, Method: SUSPENSION/PLATE) “inactive; negative. reevaluation of results: negative”; (Test System: MOUSE LYMPHOMA, Strain/Indicator: L5178Y (TK+/TK-), Metabolic Activation: RAT, LIVER, S-9, AROCLOR 1254, Method: SUSPENSION/PLATE) “inactive; negative. reevaluation of results: negative”.
